Source: paper PMC5833756, “A novel ruthenium complex with xanthoxylin induces S-phase arrest and causes ERK1/2-mediated apoptosis in HepG2 cells through a p53-independent pathway” (Cell Death & Disease, 2018)
Read-outs that look alike come from different tables or passages of the source. Marks after values point to notes of the source that are not given here.

Key:
[1] = system: HSC-3; assay type: cell-based, human; conditions: for IC50: HSC-3 (human oral squamous cell carcinoma), 72 h
[2] = system: HCT116; assay type: cell-based, human; conditions: for IC50: HCT116 (human colon carcinoma), 72 h
[3] = system: HT-29; assay type: cell-based, human; conditions: for IC50: HT-29 (human colon adenocarcinoma), 72 h
[4] = for lung histopathological characteristics: atelectasis, hemorrhage, congestion, doxorubicin 0.3 mg/kg, RCX both doses; for Initial body weight: before treatment; for Final body weight / Survival / Differential leukocytes: Eosinophils / Differential leukocytes: Lymphocytes / Differential leukocytes: Monocytes / Differential leukocytes: Neutrophils / Erythrocytes / Total leukocytes: i.p. 21 days; for Differential leukocytes: Eosinophils / Differential leukocytes: Lymphocytes / Differential leukocytes: Monocytes / Differential leukocytes: Neutrophils / Erythrocytes / Total leukocytes: peripheral blood
Method: HepG2 cells (1 × 10^7 cells per 500 µL) were implanted subcutaneously into the left front armpit of the mice. […] The treatments were initiated one day after the tumor cell injection. The animals were treated intraperitoneally (200 µL per animal) once daily for 21 consecutive days. On the 22nd day, the animals were anesthetized, and peripheral blood samples were collected from the brachial artery. Animals were euthanized by anesthetic overdose, and tumors were excised and weighed.
To assess the toxicological effects, mice were weighed at the beginning and at the end of the experiment. […] Hematological analysis was performed using light microscopy. Livers, kidneys, lungs and hearts were removed, weighed and examined for any signs of gross lesions, color changes and/or hemorrhages. After gross macroscopic examination, the tumors, livers, kidneys, lungs and hearts were fixed in 4% formalin buffer and embedded in paraffin. Tissue sections were stained with hematoxylin and eosin chromogens, and a pathologist performed the analysis under a light microscope.

[5] = system: HL-60; assay type: cell-based, human; conditions: for IC50: HL-60 (human promyelocytic leukemia), 72 h
[6] = system: HepG2; assay type: cell-based, human; conditions: for IC50: HepG2 (human hepatocellular carcinoma), monolayer, 72 h
[7] = system: AGP-01; conditions: AGP-01 (human ascitic gastric adenocarcinoma), 72 h
[8] = system: SCC-4; assay type: cell-based, human; conditions: for IC50: SCC-4 (human oral squamous cell carcinoma), 72 h
[9] = system: WT SV40 MEF; assay type: cell-based, mouse; conditions: 72 h
[10] = system: HepG2 cells; test: Trypan blue exclusion assay; assay type: cell-based, human
[11] = system: multicellular spheroids formed from HepG2 cells; test: 3D multicellular spheroid culture, alamar blue; assay type: cell-based, human; conditions: HepG2 3D spheroids, 72 h
Method: HepG2 cells were cultivated in 3D multicellular spheroids. Briefly, 100 μL of cell solution (0.5 × 10^6 cells/mL) was added to a 96-well plate with a cell-repellent surface (Greiner Bio-One, Kremsmünster, Austria) and cultured in complete medium plus 3% Matrigel (BD Biosciences, San Jose, CA, USA). Spheroids with stable structures formed after three days. Then, the spheroids were exposed to a range of drug concentrations for 72 h. The negative control received the vehicle that was used for diluting the complex tested. In the end of the experiment, morphological changes were examined by light microscopy (Olympus BX41, Tokyo, Japan) using Image-Pro software (Media Cybernetics, Inc. Silver Spring, USA), and cell viability was quantified by alamar blue assay as described above.

[12] = system: MCF-7; assay type: cell-based, human; conditions: for IC50: MCF-7 (human breast adenocarcinoma), 72 h
[13] = DOX 0.3 mg/kg, 5-FU 10 mg/kg, RCX 2.5 mg/kg groups
[14] = DOX 0.3 mg/kg, 5-FU 10 mg/kg, RCX 2.5 mg/kg
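Wherever Final body weight is given: mice bearing subcutaneous HepG2 xenografts, given intraperitoneal doses once daily for 21 days, weighed at start and end, blood leukocytes counted by light microscopy on day 22.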
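Wherever Initial body weight is given: mice bearing subcutaneous HepG2 xenografts, given intraperitoneal doses once daily for 21 days, weighed at start and end, blood leukocytes counted by light microscopy on day 22.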
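Wherever Survival is given: mice bearing subcutaneous HepG2 xenografts, given intraperitoneal doses once daily for 21 days, weighed at start and end, blood leukocytes counted by light microscopy on day 22.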
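Wherever lung histopathological characteristics is given: mice bearing subcutaneous HepG2 xenografts, given intraperitoneal doses once daily for 21 days, weighed at start and end, blood leukocytes counted by light microscopy on day 22.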

With `COc1cccc2c1C(=O)c1c(O)c3c(c(O)c1C2=O)C[C@@](O)(C(=O)CO)C[C@@H]3O[C@H]1C[C@H](N)[C@H](O)[C@H](C)O1` [DOX, doxorubicin] the IC50 [1] was 400 nM, the “selectivity index (SI)” value ([1]; IC50 HaCAT / IC50 HSC-3) was 0.3 and the “selectivity index (SI)” value ([1]; IC50 MRC5 / IC50 HSC-3) was 3.3. For the same compound, the “selectivity index (SI)” value ([1]; IC50 PBMC / IC50 HSC-3) was 13, the IC50 ([2]; HCT-116) was 200 nM and the “selectivity index (SI)” value ([2]; IC50 HaCAT / IC50 HCT116) was 0.5. For the same compound, the “selectivity index (SI)” value ([2]; IC50 MRC5 / IC50 HCT116) was 6.5, the “selectivity index (SI)” value ([2]; IC50 PBMC / IC50 HCT116) was 26 and the IC50 [3] was 300 nM. The “selectivity index (SI)” value ([3]; IC50 HaCAT / IC50 HT-29) was 0.3, the “selectivity index (SI)” value ([3]; IC50 MRC5 / IC50 HT-29) was 4.3 and the “selectivity index (SI)” value ([3]; IC50 PBMC / IC50 HT-29) was 17.3. The lung histopathological characteristics ([4]; inflammation, 21 days) was “more pronounced in the doxorubicin and RCX (both doses) groups than in the other groups”, the Initial body weight [4, 13] was 22.3 ± 0.4 g and the Final body weight [4, 14] was 19.5 ± 0.6 g. For the same compound, the Survival [4, 14] was 14/14, the “Differential leukocytes: Eosinophils” value [4, 14] was 1.0% and the “Differential leukocytes: Lymphocytes” value [4, 14] was 49.3%. The “Differential leukocytes: Monocytes” value [4, 14] was 1.0%, the “Differential leukocytes: Neutrophils” value [4, 14] was 48.8% and the Erythrocytes [4, 14] was 8.9 ± 0.7 10^6cells/μL. The Total leukocytes [4, 14] was 1.5 ± 0.2* 10^3cells/μL, the IC50 [5] was 200 nM and the “selectivity index (SI)” value ([5]; IC50 HaCAT / IC50 HL-60) was 0.5. For the same compound, the “selectivity index (SI)” value ([5]; IC50 MRC5 / IC50 HL-60) was 6.5, the “selectivity index (SI)” value ([5]; IC50 PBMC / IC50 HL-60) was 26 and the IC50 [6] was 1300 nM. For the same compound, the “selectivity index (SI)” value ([6]; IC50 HaCAT / IC50 HepG2) was 0.1, the “selectivity index (SI)” value ([6]; IC50 MRC5 / IC50 HepG2) was 1 and the “selectivity index (SI)” value ([6]; IC50 PBMC / IC50 HepG2) was 4. The IC50 [7] was 1900 nM, the “selectivity index (SI)” value ([8]; IC50 HaCAT / IC50 SCC-4) was 0.1 and the “selectivity index (SI)” value ([8]; IC50 MRC5 / IC50 SCC-4) was 0.6. The “selectivity index (SI)” value ([8]; IC50 PBMC / IC50 SCC-4) was 2.5, the IC50 [8] was 2100 nM and the IC50 ([9]; Mus musculus) was 40 nM. The “change in the number of viable cells” value ([10]; HepG2, 24 h, DOX 2 µM, OXA 10 µM) was “reduced the number of viable cells”, the IC50 ([11]; Homo sapiens) was 18100 nM and the “selectivity index (SI)” value ([12]; IC50 HaCAT / IC50 MCF-7) was 0.1. For the same compound, the “selectivity index (SI)” value ([12]; IC50 MRC5 / IC50 MCF-7) was 1.2, the “selectivity index (SI)” value ([12]; IC50 PBMC / IC50 MCF-7) was 4.7 and the IC50 ([12]; MCF7) was 1100 nM.
For `COc1cc([O-])c(C(C)=O)c(OC)c1.F[P-](F)(F)(F)(F)F.[Ru+2].c1cnc2c(c1)ccc1cccnc12.c1cnc2c(c1)ccc1cccnc12` [RCX, cis-[Ru(phen)2(xant)](PF6)], the IC50 [1] was 7700 nM, the IC50 [2] was 1600 nM and the IC50 [3] was 3400 nM. For the same compound, the lung histopathological characteristics ([4]; inflammation, 21 days) was “more pronounced in the doxorubicin and RCX (both doses) groups than in the other groups”, the Initial body weight [4, 13] was 22.2 ± 0.5 g and the Initial body weight ([4]; RCX 5 mg/kg group) was 21.1 ± 0.4 g. For the same compound, the liver histopathological characteristics ([4]; hydropic degeneration, dilatation, necrosis, inflammation, RCX 2.5 and 5 mg/kg, 21 days) was “more pronounced in the RCX groups than in the other groups”, the Final body weight [4, 14] was 20.6 ± 0.4 g and the Survival [4, 14] was 14/14. For the same compound, the Final body weight ([4]; RCX 5 mg/kg) was 17.0 ± 0.4 g, the Survival ([4]; RCX 5 mg/kg) was 7/14 and the “Differential leukocytes: Eosinophils” value [4, 14] was 1.0%. The “Differential leukocytes: Lymphocytes” value [4, 14] was 49.3%, the “Differential leukocytes: Monocytes” value [4, 14] was 1.0% and the “Differential leukocytes: Neutrophils” value [4, 14] was 48.3%. The Erythrocytes [4, 14] was 9.0 ± 0.6 10^6cells/μL, the Total leukocytes [4, 14] was 3.1 ± 0.5 10^3cells/μL and the “Differential leukocytes: Eosinophils” value ([4]; RCX 5 mg/kg) was 1.0%. For the same compound, the “Differential leukocytes: Lymphocytes” value ([4]; RCX 5 mg/kg) was 49.0%, the “Differential leukocytes: Monocytes” value ([4]; RCX 5 mg/kg) was 1.0% and the “Differential leukocytes: Neutrophils” value ([4]; RCX 5 mg/kg) was 49.0%. The Erythrocytes ([4]; RCX 5 mg/kg) was 8.3 ± 0.3 10^6cells/μL, the Total leukocytes ([4]; RCX 5 mg/kg) was 2.6 ± 0.2 10^3cells/μL and the IC50 [5] was 6600 nM. It also gave an IC50 [6] of 13500 nM, an IC50 [7] of 5300 nM and an IC50 [8] of 5300 nM. The IC50 [9] was 3900 nM, the “reduction of the number of viable cells” value ([10]; HepG2, 12 μM, 24 h) was 57.2% and the “reduction of the number of viable cells” value ([10]; HepG2, 12 μM, 48 h) was 74.6%. For the same compound, the “reduction of the number of viable cells” value ([10]; HepG2, 12 μM, 72 h) was 73.8%, the “reduction of the number of viable cells” value ([10]; HepG2, 24 μM, 24 h) was 62.2% and the “reduction of the number of viable cells” value ([10]; HepG2, 24 μM, 48 h) was 73.9%. The “reduction of the number of viable cells” value ([10]; HepG2, 24 μM, 72 h) was 82.1%, the “change in the number of viable cells” value ([10]; HepG2, 12 and 24 μM, 12 h) was “No significant decrease in the number of viable cells” and the IC50 [11] was 8000 nM. It also gave an IC50 [12] of 22400 nM.
